Measurements: patent publication US20130071854A1, “METHODS FOR THE IDENTIFICATION AND CHARACTERIZATION OF HDAC INTERACTING COMPOUNDS” (priority 2009, published 2013)
Where two headings read alike, the source gives them in different places.

Columns and labels:
GATAD2A = assay: Competition binding assay in cell lysate, affinity matrix, MS (Mi-2/NuRD interactor)
DNTTIP1 = assay: Competition binding assay in cell lysate, affinity matrix, MS; conditions: K-562 cell lysate
[1] = system: histone acetylation, K562 cells; assay: Mapping of histone acetylation by LC-MS/MS of K562 cells treated with HDACi; type: cell-based, human; conditions: K562 cells treated 6 hours, isobaric tagging and MS/MS
RBBP7 = assay: Competition binding assay in cell lysate, affinity matrix, MS (Sin3/Mi2-NuRD interactor)
MTA2 = assay: Competition binding assay in cell lysate, affinity matrix, MS (Mi-2/NuRD interactor)
PPP4C = target: T1, PPP4C (Homo sapiens, UniProt P60510); assay: Competition binding assay in cell lysate, affinity matrix, MS; conditions: PPP4C, read-out: IC50
T1 construct: endogenous in cells
T1 sequence (P60510 1-307): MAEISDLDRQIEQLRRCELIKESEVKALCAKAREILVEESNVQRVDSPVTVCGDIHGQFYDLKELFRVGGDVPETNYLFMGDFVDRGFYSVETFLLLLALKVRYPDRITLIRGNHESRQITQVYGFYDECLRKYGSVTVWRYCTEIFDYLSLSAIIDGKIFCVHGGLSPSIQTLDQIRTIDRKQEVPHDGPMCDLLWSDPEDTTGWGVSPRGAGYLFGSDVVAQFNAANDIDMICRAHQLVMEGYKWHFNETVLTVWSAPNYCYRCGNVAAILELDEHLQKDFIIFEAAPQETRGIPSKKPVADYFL

Sin3 complex = assay: Chemoproteomic binding profiling, K562 cell extract, SAHA/ITF2357 probe matrix (Kd app); parameters: species or system human
CoREST complex = assay: Chemoproteomic binding profiling, K562 cell extract, SAHA/ITF2357 probe matrix (Kd app); parameters: species or system human; conditions: read-out: Kd^app GSE1
MTA1 = assay: Competition binding assay in cell lysate, affinity matrix, MS (Mi-2/NuRD interactor); parameters: species or system human; conditions: Molt-4 cell lysate
NuRD complex = assay: Chemoproteomic binding profiling, K562 cell extract, SAHA/ITF2357 probe matrix (Kd app); parameters: species or system human
MTA3 = assay: Competition binding assay in cell lysate, affinity matrix, MS (Mi-2/NuRD interactor); conditions: K-562 cell lysate
ALDH2 = target: T2, ALDH2 (Homo sapiens, UniProt P05091); assay: Competition binding assay in cell lysate, affinity matrix, MS; conditions: ALDH2, read-out: IC50
T2 construct: endogenous in cells
T2 sequence (P05091 18-517): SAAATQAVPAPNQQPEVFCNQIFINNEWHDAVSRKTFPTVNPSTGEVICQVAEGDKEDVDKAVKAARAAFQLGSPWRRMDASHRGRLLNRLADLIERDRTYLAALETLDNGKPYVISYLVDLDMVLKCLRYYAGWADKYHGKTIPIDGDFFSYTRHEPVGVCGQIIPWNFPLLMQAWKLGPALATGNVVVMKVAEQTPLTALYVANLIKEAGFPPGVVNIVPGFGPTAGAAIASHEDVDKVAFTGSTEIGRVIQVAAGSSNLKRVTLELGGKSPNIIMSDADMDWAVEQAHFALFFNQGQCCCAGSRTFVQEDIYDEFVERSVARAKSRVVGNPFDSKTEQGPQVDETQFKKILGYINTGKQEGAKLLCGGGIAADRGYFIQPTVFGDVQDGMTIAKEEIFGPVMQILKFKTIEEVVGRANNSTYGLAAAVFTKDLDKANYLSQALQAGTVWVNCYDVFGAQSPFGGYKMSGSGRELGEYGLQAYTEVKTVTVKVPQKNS

ISOC2 = target: T3, ISOC2 (Homo sapiens, UniProt Q96AB3); assay: as above; conditions: ISOC2; K-562 cell lysate
T3 construct: endogenous in cells

TBL1X = conditions: K-562 cell lysate
GPS2 = conditions: Molt-4 cell lysate
HSPD1 = target: T4, HSPD1 (Homo sapiens, UniProt P10809); assay: Competition binding assay in cell lysate, affinity matrix, MS; conditions: HSPD1, read-out: IC50
T4 construct: endogenous in cells

MBD3 = assay: Competition binding assay in cell lysate, affinity matrix, MS (Mi-2/NuRD interactor)
BZW2 = target: T5, BZW2 (Homo sapiens, UniProt Q9Y6E2); assay: Competition binding assay in cell lysate, affinity matrix, MS; conditions: BZW2, read-out: IC50
T5 construct: endogenous in cells
T5 sequence (Q9Y6E2 1-419): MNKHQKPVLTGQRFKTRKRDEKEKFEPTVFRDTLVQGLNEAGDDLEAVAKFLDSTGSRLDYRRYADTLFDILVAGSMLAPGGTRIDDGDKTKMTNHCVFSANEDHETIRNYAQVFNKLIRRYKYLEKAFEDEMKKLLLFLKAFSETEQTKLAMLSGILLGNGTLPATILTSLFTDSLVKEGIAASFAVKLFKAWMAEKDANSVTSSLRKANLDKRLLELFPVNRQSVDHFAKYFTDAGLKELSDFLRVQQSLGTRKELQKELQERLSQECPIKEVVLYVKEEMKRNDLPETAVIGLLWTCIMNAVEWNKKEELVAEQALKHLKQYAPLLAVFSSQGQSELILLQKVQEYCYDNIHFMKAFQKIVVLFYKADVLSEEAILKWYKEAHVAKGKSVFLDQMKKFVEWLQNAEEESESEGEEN

ISOC1 = target: T6, ISOC1 (Homo sapiens, UniProt Q96CN7); assay: as above; conditions: ISOC1, read-out: IC50
T6 construct: endogenous in cells
T6 sequence (Q96CN7 1-298): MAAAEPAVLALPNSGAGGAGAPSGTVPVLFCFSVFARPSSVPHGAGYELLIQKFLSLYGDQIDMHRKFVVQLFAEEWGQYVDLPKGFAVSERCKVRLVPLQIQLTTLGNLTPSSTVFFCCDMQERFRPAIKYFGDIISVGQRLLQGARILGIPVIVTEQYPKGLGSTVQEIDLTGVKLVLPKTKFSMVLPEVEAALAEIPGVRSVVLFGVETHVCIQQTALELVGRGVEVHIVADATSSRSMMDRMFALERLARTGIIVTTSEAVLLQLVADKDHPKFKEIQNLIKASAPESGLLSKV

GATAD2B = assay: Competition binding assay in cell lysate, affinity matrix, MS (Mi-2/NuRD interactor)
WDR5 = target: T7, WDR5 (Homo sapiens, UniProt P61964); assay: Competition binding assay in cell lysate, affinity matrix, MS; conditions: WDR5; K-562 cell lysate
T7 construct: endogenous in cells

T4 sequence (P10809 27-573): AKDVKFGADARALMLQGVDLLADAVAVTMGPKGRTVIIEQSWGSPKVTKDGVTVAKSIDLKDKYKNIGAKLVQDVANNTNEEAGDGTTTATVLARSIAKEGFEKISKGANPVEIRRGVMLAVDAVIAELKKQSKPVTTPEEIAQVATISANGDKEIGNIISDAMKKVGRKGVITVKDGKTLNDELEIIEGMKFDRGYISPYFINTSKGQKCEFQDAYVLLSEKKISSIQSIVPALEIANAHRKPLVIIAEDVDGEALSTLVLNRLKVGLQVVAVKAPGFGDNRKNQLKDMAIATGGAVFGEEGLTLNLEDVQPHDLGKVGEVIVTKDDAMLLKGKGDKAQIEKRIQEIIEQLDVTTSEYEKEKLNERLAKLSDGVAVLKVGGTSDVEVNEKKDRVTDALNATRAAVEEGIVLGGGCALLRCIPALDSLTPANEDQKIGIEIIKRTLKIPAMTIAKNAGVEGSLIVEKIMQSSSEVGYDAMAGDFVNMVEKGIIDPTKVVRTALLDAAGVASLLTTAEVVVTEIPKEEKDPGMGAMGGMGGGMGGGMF
T3 sequence (Q96AB3 whole entry): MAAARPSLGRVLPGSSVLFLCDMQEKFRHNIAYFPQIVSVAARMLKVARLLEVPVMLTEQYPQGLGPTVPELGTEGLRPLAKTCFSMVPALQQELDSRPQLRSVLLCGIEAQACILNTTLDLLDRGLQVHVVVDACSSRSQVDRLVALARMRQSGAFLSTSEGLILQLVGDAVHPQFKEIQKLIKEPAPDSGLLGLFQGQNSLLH

For `CC(/C=C/C(=O)NO)=C\[C@@H](C)C(=O)c1ccc(N(C)C)cc1` [Trichostatin A], which IC50 (GATAD2A; K-562 cell lysate) is on record?
Its IC50 is 60 nM.

And the IC50 (GATAD2A; Molt-4 cell lysate)?
The IC50 was 40 nM.

What about the IC50 (DNTTIP1) of the same compound?
Its IC50 is 50 nM.

What about the “abundance of acetylated histone peptides (in words)” value [1] of the same compound?
The value was “pronounced abundance of hyperacetylated histone peptides”.

And the IC50 (RBBP7; K-562 cell lysate)?
The IC50 was 180 nM.

What about the IC50 (RBBP7; Molt-4 cell lysate) of the same compound?
The IC50 was 120 nM.

And the IC50 (MTA2; K-562 cell lysate)?
The IC50 was 70 nM.

What about the IC50 (MTA2; Molt-4 cell lysate) of the same compound?
The IC50 was 60 nM.

What about the IC50 (PPP4C; K-562 cell lysate) of the same compound?
Its IC50 is 3000 nM.

And the IC50 (PPP4C; Molt-4 cell lysate)?
The IC50 was 3000 nM.

What about the Kd (Sin3 complex; protein SAP30, read-out: Kd^app SAP30) of the same compound?
The Kd was 30 nM.

And the Kd (Sin3 complex; protein SIN3A, read-out: Kd^app SIN3A)?
The Kd was 30 nM.

What about the Kd (Sin3 complex; protein SIN3B, read-out: Kd^app SIN3B) of the same compound?
The Kd was 30 nM.

And the IC50 (TBL1XR1; K-562 cell lysate)?
Its IC50 is 70 nM.

And the IC50 (TBL1XR1; Molt-4 cell lysate)?
The IC50 was 70 nM.

And the Kd (CoREST complex)?
Its Kd is 4 nM.

And the IC50 (MTA1)?
Its IC50 is 60 nM.

What about the Kd (NuRD complex; read-out: Kd^app CHD4) of the same compound?
The Kd was 60 nM.

And the Kd (NuRD complex; read-out: Kd^app GATAD2B)?
The Kd was 30 nM.

What about the Kd (NuRD complex; read-out: Kd^app MTA1) of the same compound?
The Kd was 120 nM.

What about the IC50 (MTA3) of the same compound?
Its IC50 is 60 nM.

And the IC50 (ALDH2; K-562 cell lysate)?
The IC50 was 3000 nM.

And the IC50 (ALDH2; Molt-4 cell lysate)?
Its IC50 is 3000 nM.

And the IC50 (ISOC2)?
The IC50 was 3000 nM.

What about the IC50 (TBL1X) of the same compound?
The IC50 was 50 nM.

And the IC50 (GPS2)?
The IC50 was 100 nM.

What about the IC50 (HSPD1; K-562 cell lysate) of the same compound?
Its IC50 is 3000 nM.

What about the IC50 (HSPD1; Molt-4 cell lysate) of the same compound?
The IC50 was 3000 nM.

And the IC50 (MBD3; K-562 cell lysate)?
The IC50 was 50 nM.

What about the IC50 (MBD3; Molt-4 cell lysate) of the same compound?
Its IC50 is 40 nM.

What about the IC50 (BZW2; K-562 cell lysate) of the same compound?
The IC50 was 2790 nM.

And the IC50 (BZW2; Molt-4 cell lysate)?
The IC50 was 2450 nM.

And the IC50 (ISOC1; K-562 cell lysate)?
Its IC50 is 3000 nM.

And the IC50 (ISOC1; Molt-4 cell lysate)?
The IC50 was 3000 nM.

And the IC50 (GATAD2B; K-562 cell lysate)?
Its IC50 is 60 nM.

What about the IC50 (GATAD2B; Molt-4 cell lysate) of the same compound?
The IC50 was 60 nM.

And the IC50 (WDR5)?
Its IC50 is 420 nM.
